Source: ChEMBL document CHEMBL1201862, “PubChem BioAssay data set” (2004)
Active and inactive are the calls of the source.

Assays:
[1] = target: Potassium voltage-gated channel subfamily KQT member 2 (Rattus norvegicus, UniProt O88943, W236L); assay: KCNQ2 channel potentiators, dose response, mechanism study for KCNQ2 potentiator project, cell-based, automated electrophysiology (AID 2603); assay type: functional
[2] = target: T1, Ubiquitin-conjugating enzyme E2 N (Homo sapiens, UniProt P61088); assay type: functional
T1 sequence (P61088 whole entry): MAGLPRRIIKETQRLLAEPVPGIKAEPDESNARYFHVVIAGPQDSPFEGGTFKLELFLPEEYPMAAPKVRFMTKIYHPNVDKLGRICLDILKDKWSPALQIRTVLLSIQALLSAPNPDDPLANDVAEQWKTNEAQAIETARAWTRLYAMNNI

[3] = reduction of Shn3 3'UTR firefly luciferase signal, dose response, Schnurri-3 inhibitor project, cell-based, Clone20 osteoblasts, cherry-pick, set 2 (AID 720490); assay type: functional;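 further: actives lower the luminescence signal as inhibitors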
[4] = target: T2, Bcl-2-related protein A1 (Mus musculus, UniProt Q07440); assay type: functional;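 further: confirmatory dose–response counterscreen on Bfl-1, used to check hits from a UBC13 polyubiquitin inhibitor campaign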
T2 sequence (Q07440 whole entry): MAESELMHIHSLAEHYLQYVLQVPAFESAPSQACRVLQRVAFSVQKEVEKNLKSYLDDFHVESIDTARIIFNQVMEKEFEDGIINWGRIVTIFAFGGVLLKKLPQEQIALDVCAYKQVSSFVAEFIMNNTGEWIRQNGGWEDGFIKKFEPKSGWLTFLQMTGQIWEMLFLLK

[5] = target: T3, Protein RecA (Mycobacterium tuberculosis, UniProt P9WHJ3); assay: Fluorescence Cell-Free Homogeneous Dose Retest to Identify Inhibitors of RecA-Intein Splicing Activity. [Related pubchem assays (depositor defined):AID2097, AID2223, AID489010, AID492950]; assay type: functional
T3 sequence (P9WHJ3 whole entry): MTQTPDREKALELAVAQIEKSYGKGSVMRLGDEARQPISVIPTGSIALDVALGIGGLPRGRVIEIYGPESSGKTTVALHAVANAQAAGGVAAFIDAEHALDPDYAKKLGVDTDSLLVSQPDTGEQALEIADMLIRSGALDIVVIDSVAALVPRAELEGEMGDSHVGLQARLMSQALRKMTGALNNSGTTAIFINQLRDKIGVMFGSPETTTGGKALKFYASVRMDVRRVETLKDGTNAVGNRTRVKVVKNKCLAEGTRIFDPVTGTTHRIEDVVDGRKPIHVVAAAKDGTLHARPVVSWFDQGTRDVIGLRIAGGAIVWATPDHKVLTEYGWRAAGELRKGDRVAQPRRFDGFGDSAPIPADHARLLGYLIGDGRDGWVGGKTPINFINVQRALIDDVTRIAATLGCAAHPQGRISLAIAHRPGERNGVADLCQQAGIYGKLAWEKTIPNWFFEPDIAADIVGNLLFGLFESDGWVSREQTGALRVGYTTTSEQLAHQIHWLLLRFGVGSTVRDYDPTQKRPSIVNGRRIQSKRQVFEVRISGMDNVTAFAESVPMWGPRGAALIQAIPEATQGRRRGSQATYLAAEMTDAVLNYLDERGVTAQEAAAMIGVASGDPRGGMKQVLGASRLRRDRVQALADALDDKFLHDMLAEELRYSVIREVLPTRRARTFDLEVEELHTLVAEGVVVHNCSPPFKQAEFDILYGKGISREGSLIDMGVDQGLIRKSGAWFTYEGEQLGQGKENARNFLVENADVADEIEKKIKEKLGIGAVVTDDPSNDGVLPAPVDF

[6] = system: Vero; assay: Vero cell cytotoxicity, cytotoxicity control for flavivirus capping enzyme inhibitors (AID 588742); assay type: functional; details: Chlorocebus sabaeus
[7] = target: T4, High affinity choline transporter 1 (Homo sapiens, UniProt Q9GZV3); assay: CHT inhibitors, dose response, cell-based, 10-point CRC, membrane potential dye (AID 588401); assay type: functional;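 further: membrane potential dye fluorescence of choline-evoked depolarization via CHT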
T4 sequence (Q9GZV3 whole entry): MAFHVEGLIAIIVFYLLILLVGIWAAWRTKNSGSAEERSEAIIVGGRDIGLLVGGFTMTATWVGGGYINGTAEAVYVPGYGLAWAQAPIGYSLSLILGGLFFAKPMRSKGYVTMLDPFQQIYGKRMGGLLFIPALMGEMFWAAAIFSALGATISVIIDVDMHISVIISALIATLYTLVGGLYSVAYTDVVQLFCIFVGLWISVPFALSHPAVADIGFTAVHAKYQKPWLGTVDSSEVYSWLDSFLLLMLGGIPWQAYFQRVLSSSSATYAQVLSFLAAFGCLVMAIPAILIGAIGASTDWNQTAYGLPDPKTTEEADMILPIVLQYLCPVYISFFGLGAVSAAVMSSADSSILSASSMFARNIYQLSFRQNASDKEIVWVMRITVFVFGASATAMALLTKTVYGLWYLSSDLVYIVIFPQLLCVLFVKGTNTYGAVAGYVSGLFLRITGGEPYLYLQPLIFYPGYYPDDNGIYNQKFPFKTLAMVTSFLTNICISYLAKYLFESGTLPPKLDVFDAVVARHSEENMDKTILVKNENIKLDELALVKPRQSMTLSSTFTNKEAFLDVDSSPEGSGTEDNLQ

[8] = target: Genome polyprotein (dengue virus type 2, UniProt P29990); assay: Dengue-2 NS5 methyltransferase inhibitors, primary screen, biochemical, confirmation dose response (AID 588689); assay type: functional
[9] = target: T5, Replicative DNA helicase DnaB (Mycobacterium tuberculosis, UniProt P9WMR3); assay: DnaB intein splicing inhibitors, dose response, biochemical, cell-free fluorescence (AID 449749); assay type: functional
T5 sequence (P9WMR3 whole entry): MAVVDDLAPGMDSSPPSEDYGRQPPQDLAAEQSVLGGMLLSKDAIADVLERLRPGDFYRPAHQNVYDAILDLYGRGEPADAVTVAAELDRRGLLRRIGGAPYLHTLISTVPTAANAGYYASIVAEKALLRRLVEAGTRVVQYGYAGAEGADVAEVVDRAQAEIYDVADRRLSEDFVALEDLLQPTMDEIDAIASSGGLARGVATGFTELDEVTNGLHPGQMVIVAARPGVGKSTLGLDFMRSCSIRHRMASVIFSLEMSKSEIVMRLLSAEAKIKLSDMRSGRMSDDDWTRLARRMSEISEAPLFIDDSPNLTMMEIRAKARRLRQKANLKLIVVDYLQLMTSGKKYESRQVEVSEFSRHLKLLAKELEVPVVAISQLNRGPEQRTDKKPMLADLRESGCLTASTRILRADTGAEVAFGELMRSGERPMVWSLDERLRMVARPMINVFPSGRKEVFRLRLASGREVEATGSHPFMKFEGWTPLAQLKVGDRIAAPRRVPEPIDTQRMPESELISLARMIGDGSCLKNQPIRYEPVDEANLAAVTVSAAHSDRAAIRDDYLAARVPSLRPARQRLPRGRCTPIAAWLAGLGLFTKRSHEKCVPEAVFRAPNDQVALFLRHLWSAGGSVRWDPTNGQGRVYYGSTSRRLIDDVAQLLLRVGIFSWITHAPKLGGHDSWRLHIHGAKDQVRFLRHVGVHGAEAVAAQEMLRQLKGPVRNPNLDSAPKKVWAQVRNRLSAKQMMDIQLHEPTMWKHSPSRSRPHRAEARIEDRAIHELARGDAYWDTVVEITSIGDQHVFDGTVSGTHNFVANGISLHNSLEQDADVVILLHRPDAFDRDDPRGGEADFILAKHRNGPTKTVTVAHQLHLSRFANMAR

[10] = inhibitors of control Renilla luciferase reporter, dose response, counter-screen for Shn3 3'UTR targeting project, Clone20-Shn3RL cells, dual-Glo, cherry-pick, set 2 (AID 720724); assay type: functional, cell-based; details: Dual-Go Shn3RL
[11] = control 3'UTR Renilla luciferase suppression, dose response, counter-screen for Shn3 inhibitor project, cell-based, Clone20-Shn3RL, cherry-picked (AID 624133); assay type: functional
[12] = Shn3 3'UTR reporter inhibitors, dose response, cell-based, Clone20 osteoblasts, firefly luciferase, cherry-picked (AID 624132); assay type: functional;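 further: firefly luciferase luminescence from reporter carrying the Shn3 3'UTR in osteoblasts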
[13] = target: T4, High affinity choline transporter 1; assay: CHT inhibitors, dose response, cell-based, 5-point CRC, membrane potential dye (AID 504840); assay type: functional
[14] = reduction of endogenous Shn3 mRNA, dose response, qPCR, Clone20 cells, cherry-pick (AID 743415); assay type: functional, cell-based
[15] = target: T1, Ubiquitin-conjugating enzyme E2 N; assay type: functional; remark: listed apart in the source
[16] = target: T6, Leucine aminopeptidase (Plasmodium falciparum 3D7, UniProt Q8IL11); assay: P. falciparum M17LAP inhibitors, primary screen, biochemical, fluorogenic H-Leu-NHMec substrate, 1536-well (AID 1619); assay type: functional
T6 sequence (Q8IL11 whole entry): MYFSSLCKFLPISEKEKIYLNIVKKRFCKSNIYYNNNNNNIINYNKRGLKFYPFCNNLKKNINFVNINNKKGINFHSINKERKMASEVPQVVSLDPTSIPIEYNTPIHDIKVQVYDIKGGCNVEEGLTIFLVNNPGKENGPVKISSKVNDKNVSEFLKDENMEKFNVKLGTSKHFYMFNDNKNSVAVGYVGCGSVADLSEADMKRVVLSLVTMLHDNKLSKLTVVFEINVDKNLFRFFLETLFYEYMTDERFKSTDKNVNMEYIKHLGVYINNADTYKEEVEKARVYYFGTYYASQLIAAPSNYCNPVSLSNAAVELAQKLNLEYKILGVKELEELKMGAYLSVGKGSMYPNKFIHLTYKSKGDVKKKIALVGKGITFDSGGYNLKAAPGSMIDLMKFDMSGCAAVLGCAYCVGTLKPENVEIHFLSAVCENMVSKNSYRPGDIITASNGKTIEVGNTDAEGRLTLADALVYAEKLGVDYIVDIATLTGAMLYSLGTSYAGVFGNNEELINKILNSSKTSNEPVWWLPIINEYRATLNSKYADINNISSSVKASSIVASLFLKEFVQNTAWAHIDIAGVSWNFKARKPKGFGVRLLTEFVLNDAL

[17] = target: Procathepsin L (Homo sapiens, UniProt P07711); assay: cathepsin L inhibitors, dose response, counter-screen for M1/M17 aminopeptidase inhibitor project, biochemical, QFRET, 1536-well (AID 2214)
[18] = target: Aspartyl aminopeptidase (Plasmodium falciparum 3D7, UniProt Q8I2J3); assay: Counterscreen for inhibitors of M1 and M17 aminopeptidases: QFRET-based biochemical high throughput dose response assay for inhibitors of the Plasmodium falciparum M18 Aspartyl Aminopeptidase (PFM18AAP). [Related PubChem assays: 1619 (Screening assay (M17LAP inhibitors).), 1445 (Screening assay (M1AAP inhibitors).)]
[19] = target: Lytic switch protein BZLF1 (Epstein-Barr virus (strain B95-8) (HHV-4) (Human herpesvirus 4), UniProt P03206); assay: EBV ZTA inhibitors, dose response, counter-screen for EBNA-1 inhibitor project, biochemical, fluorescence polarization, Epstein-Barr virus, 1536-well (AID 2377); parameters: species or system human gammaherpesvirus 4;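 further: fluorescence polarization of Cy5-labelled ZRE DNA probe bound by purified Zta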
[20] = target: Epstein-Barr nuclear antigen 1 (Epstein-Barr virus (strain B95-8) (HHV-4) (Human herpesvirus 4), UniProt P03211); assay: EBNA-1 inhibitors, dose response, biochemical, fluorescence polarization, 1536-well (AID 2381); parameters: species or system human gammaherpesvirus 4;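 further: fluorescence polarization of a Cy5 DNA probe bound by EBNA-1 protein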
Epstein-Barr nuclear antigen 1, sequence (P03211 whole entry): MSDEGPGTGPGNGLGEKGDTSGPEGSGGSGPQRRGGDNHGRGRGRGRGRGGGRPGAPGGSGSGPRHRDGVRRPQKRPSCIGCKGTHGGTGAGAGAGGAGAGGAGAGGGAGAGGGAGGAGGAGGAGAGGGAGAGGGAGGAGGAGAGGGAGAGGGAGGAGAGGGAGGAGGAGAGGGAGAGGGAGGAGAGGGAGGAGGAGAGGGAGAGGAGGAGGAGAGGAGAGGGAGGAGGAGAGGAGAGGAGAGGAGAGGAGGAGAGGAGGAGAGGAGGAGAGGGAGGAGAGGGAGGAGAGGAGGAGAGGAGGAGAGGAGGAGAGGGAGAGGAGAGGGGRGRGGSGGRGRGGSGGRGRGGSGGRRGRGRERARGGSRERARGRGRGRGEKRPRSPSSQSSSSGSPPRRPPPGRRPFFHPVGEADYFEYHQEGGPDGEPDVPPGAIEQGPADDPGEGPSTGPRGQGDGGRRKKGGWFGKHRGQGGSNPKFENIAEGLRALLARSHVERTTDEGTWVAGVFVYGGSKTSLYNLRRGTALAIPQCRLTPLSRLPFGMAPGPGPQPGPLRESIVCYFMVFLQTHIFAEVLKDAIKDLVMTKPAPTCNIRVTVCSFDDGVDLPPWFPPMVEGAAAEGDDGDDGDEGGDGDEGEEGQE

Aspartyl aminopeptidase, sequence (Q8I2J3 whole entry): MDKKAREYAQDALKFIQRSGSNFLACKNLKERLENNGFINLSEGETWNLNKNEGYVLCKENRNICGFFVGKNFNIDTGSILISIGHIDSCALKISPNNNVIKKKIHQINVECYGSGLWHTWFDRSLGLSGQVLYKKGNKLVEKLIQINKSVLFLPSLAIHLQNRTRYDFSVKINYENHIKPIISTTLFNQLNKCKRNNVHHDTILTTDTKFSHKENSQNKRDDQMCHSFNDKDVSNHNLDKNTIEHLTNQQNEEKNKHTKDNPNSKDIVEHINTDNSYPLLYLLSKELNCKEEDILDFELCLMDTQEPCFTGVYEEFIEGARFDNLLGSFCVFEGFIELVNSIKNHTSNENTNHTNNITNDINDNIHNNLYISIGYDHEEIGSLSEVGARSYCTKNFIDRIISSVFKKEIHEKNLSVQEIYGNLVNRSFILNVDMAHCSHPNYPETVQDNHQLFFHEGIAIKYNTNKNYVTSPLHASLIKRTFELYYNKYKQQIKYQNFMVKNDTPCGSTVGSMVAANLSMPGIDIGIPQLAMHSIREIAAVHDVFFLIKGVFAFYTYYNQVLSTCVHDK
Procathepsin L, sequence (P07711 whole entry): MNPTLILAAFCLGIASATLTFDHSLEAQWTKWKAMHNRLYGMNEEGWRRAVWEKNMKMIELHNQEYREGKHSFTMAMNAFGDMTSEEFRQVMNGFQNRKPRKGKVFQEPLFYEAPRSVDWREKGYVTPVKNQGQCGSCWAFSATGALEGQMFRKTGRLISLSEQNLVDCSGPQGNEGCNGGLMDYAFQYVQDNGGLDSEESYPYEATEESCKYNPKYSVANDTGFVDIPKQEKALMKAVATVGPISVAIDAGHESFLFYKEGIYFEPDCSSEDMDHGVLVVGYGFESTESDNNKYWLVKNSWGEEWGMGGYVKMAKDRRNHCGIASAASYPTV
Potassium voltage-gated channel subfamily KQT member 2, sequence (O88943 whole entry W236L): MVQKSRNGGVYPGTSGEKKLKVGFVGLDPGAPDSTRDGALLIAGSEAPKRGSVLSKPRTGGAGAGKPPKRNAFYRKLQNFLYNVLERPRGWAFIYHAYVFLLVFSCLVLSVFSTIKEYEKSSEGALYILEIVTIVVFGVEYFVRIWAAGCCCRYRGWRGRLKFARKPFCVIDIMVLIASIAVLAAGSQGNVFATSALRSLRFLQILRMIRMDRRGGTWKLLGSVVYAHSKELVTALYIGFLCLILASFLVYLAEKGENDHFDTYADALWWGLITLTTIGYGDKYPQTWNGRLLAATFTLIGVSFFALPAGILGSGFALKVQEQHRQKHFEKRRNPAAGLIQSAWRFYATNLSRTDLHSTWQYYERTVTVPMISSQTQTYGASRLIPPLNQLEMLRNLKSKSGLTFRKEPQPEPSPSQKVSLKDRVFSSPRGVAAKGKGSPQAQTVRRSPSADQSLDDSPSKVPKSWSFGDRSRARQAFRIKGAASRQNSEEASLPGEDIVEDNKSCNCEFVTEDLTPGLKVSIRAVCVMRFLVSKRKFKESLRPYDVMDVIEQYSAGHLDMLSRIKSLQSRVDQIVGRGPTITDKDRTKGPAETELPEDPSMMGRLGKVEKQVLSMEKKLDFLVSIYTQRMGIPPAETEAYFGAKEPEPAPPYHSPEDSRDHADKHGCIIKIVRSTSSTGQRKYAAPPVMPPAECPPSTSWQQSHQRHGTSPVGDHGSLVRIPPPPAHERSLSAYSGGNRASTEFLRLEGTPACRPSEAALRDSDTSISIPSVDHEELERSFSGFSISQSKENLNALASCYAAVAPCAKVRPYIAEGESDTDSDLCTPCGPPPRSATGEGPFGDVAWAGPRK
Genome polyprotein, sequence (P29990 2492-3391 limits assumed): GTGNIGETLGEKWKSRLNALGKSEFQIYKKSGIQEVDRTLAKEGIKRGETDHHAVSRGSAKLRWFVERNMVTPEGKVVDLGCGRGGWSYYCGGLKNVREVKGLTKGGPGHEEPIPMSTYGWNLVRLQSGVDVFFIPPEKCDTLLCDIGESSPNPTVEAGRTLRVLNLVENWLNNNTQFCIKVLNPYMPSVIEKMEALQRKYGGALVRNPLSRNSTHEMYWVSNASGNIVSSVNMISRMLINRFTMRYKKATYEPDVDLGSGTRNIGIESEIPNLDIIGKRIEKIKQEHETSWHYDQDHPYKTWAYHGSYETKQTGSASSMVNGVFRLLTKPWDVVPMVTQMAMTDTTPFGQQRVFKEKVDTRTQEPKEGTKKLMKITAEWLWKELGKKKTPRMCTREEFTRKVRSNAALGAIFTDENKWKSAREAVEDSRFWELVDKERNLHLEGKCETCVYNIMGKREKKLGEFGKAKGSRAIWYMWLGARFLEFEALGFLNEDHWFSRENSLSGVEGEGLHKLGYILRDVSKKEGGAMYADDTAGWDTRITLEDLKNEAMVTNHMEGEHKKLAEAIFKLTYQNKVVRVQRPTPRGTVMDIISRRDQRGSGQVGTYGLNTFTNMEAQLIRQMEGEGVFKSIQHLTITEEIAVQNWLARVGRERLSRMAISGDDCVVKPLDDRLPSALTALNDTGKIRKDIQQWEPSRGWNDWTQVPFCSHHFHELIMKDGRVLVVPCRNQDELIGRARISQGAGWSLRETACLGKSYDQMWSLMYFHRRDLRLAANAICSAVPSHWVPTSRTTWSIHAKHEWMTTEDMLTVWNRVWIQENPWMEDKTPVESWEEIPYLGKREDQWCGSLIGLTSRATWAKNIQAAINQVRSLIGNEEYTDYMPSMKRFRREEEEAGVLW
Lytic switch protein BZLF1, sequence (P03206 whole entry): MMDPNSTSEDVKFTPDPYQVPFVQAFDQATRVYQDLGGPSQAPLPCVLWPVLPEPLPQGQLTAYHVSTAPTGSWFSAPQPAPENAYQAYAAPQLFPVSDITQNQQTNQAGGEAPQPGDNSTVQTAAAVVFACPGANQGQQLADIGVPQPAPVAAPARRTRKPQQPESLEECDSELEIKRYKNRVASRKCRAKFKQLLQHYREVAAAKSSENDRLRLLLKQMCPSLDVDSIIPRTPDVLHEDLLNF

| Compound | EC50 [1] | IC50 [2] | AC50 [3] | IC50 [4] | EC50 [5] | CC50 [6] | IC50 [7] | IC50 [8] | AC50 [9] | AC50 [10] | AC50 [11] | AC50 [12] | IC50 [13] | AC50 [14] | IC50 [15] | IC50 [16] | IC50 [17] | IC50 [18] | IC50 [19] | IC50 [20] |
| --- | --- | --- | --- | --- | --- | --- | --- | --- | --- | --- | --- | --- | --- | --- | --- | --- | --- | --- | --- | --- |
| CCCc1nnc(NC(=O)c2nc(S(=O)(=O)Cc3ccc(C)cc3)ncc2Cl)s1 | 3.02 µM (active) | 14.8 µM (active) | 2.05 µM (active) | > 20 µM (inactive) | 86.7 µM (active) | > 40 µM (active) | 3.36 µM (active) | > 100 µM (active) | > 380 µM (inactive) | 40.7 µM (active) | 12.5 µM (active) | 0.538 µM (active) | 2.59 µM (active) | 13.4 µM (active) | 10.5 µM (active) |  |  |  |  |  |
| CCOc1cccc(-c2cc(O)[nH]n2)c1 |  |  |  |  | 0.695 µM (active) |  |  |  | 2.18 µM (active) |  |  |  |  |  |  | 1.25 µM (active) | > 59.6 µM (not active) | > 73.5 µM (not active) |  |  |
| COc1ccc(-c2nonc2NC(=O)c2oc3ccc(F)cc3c2C)cc1OC |  |  |  |  |  |  |  |  |  |  |  |  |  |  |  |  |  |  | > 111 µM (not active) | 16.4 µM (not active) |
